The source of these data is article PMC9043270, “β-Blockers bearing hydroxyethylamine and hydroxyethylene as potential SARS-CoV-2 Mpro inhibitors: rational based design, in silico, in vitro, and SAR studies for lead optimization” (RSC Advances, 2021).

As usually defined, the IC50 is the concentration needed to halve the response being measured.

In this test the target is T1, SARS-CoV-2 Mpro (3CL protease) (Severe acute respiratory syndrome coronavirus 2, UniProt P0DTD1).
T1 construct: gene rep
The test is described as follows: fluorogenic substrate 3CL protease assay kit. In kind it is biochemical. Conditions: read-out: IC50 (μg ml^-1) (converted). The text has this:
fluorogenic substrate 3CL protease assay kit on SARS-CoV-2 Mpro (3CL protease)
As for `Cc1cccc(C)c1OCC(=O)N[C@@H](Cc1ccccc1)[C@@H](O)C[C@H](Cc1ccccc1)NC(=O)[C@H](C(C)C)N1CCCNC1=O` [Lopinavir], the IC50 is 117 µM. `CC(C)NCC(O)COc1ccc(COCCOC(C)C)cc1` (stereo not shown) [compound 8, Bisoprolol]: the IC50 was 364 µM. Turning to `COc1ccccc1OCCNCC(O)COc1cccc2[nH]c3ccccc3c12` (stereo not shown) [compound 17, Carvedilol], the IC50 was 503 µM. In the case of `OC(CNCC(O)C1CCc2cc(F)ccc2O1)C1CCc2cc(F)ccc2O1` (stereo not shown) [compound 20, Nebivolol], the IC50 was 148 µM.
